Measurements: patent US20260193293A1, “PEPTIDES CAPABLE OF INHIBITING PROTEIN-PROTEIN INTERACTIONS AT GABAB1A SUBUNIT AND USES THEREOF” (UNIVERSITY OF COPENHAGEN, priority 2022, published 2026)
Non-standard residues stand in square brackets, D forms with d. Residues, ends and D or L forms follow the SMILES beside them. NMeW = CN[C@@H](Cc1c[nH]c2ccccc12)C(=O)O

What follows are molecules tested against Sushi domains (SD1/2) protein (assay: Fluorescence polarization (FP) competition assay with AJAP-1probe, calculated Ki). Conditions: Table 5, elongation and truncation scan of AJAP-1 binding epitope; read-out: Ki (nM) mean ± SEM.
Assay type: binding
Summary of the method: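 Competition against 25 nM TAMRA-labelled peptide probe binding SD1/2, in PBS pH 7.4 with 1% BSA at rt, read at 530/580 nm. IC50 from sigmoidal dose-response fits, at least triplicate; Ki calculated from IC50 using probe Kd from saturation binding.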

Structure (SMILES)	Ki
CC[C@H](C)[C@H](NC(=O)[C@H](Cc1ccccc1)NC(C)=O)C(=O)N[C@@H](C)C(=O)N[C@@H](Cc1c[nH]c2ccccc12)C(=O)NCC(=O)N1CCC[C@H]1C(=O)N[C@H](C(=O)NCC(=O)N[C@@H](CC(=O)O)C(=O)N[C@@H](CCC(=O)O)C(=O)N[C@@H](CC(=O)O)C(N)=O)[C@@H](C)O [FIAWGPTGDED] (Ac-FIAWGPTGDED-NH2)	118 ± 1 nM
CC[C@H](C)[C@H](NC(C)=O)C(=O)N[C@@H](C)C(=O)N[C@@H](Cc1c[nH]c2ccccc12)C(=O)NCC(=O)N1CCC[C@H]1C(=O)N[C@H](C(=O)NCC(=O)N[C@@H](CC(=O)O)C(=O)N[C@@H](CCC(=O)O)C(=O)N[C@@H](CC(=O)O)C(N)=O)[C@@H](C)O [IAWGPTGDED] (Ac-IAWGPTGDED-NH2)	38000 ± 430 nM

Same assay, conditions: Table 9, Ala-, D-amino acids and N-methylation scans of PIANPWT; read-out: Ki (nM) mean ± SEM

Structure (SMILES)	Ki
CC[C@H](C)[C@H](NC(=O)[C@H](C)NC(=O)[C@H](Cc1c[nH]c2ccccc12)N(C)C(=O)[C@@H]1CCCN1C(C)=O)C(=O)N[C@H](C(=O)N[C@@H](Cc1c[nH]c2ccccc12)C(=O)NCC(=O)N1CCC[C@H]1C(=O)N[C@H](C(=O)N[C@H](C(=O)N[C@@H](CO)C(=O)N[C@@H](CCCNC(=N)N)C(=O)N[C@@H](CCC(=O)O)C(=O)N[C@@H](CC(=O)O)C(N)=O)C(C)C)[C@@H](C)O)C(C)C [P(N-Me-W)AIVWGPTVSRED] (Ac-P[NMeW]AIVWGPTVSRED-NH2)	833 ± 12 nM

Same assay, conditions: Table 11, cells printed in μM; read-out: Ki (nM) mean ± SEM

Structure (SMILES)	Ki
CC[C@H](C)[C@H](NC(=O)[C@H](Cc1ccccc1)NC(=O)[C@H](CCC(=O)O)NC(=O)[C@@H](NC(=O)[C@H](CCC(=O)O)NC(C)=O)[C@@H](C)O)C(=O)N1CCC[C@H]1C(=O)N[C@@H](Cc1c[nH]c2ccccc12)C(=O)NCC(=O)N1CCC[C@H]1C(=O)N[C@H](C(=O)NCC(=O)N[C@@H](CC(=O)O)C(=O)N[C@@H](CCC(=O)O)C(=O)N[C@@H](CC(=O)O)C(N)=O)[C@@H](C)O [ETEFIPWGPTGDED] (Ac-ETEFIPWGPTGDED-NH2)	> 6250 nM
CC[C@H](C)[C@H](NC(=O)[C@H](CCCCN)NC(=O)[C@H](CCC(=O)O)NC(=O)[C@@H](NC(=O)[C@H](CCC(=O)O)NC(C)=O)[C@@H](C)O)C(=O)N[C@@H](C)C(=O)N[C@@H](Cc1c[nH]c2ccccc12)C(=O)NCC(=O)N1CCC[C@H]1C(=O)N[C@H](C(=O)NCC(=O)N[C@@H](CC(=O)O)C(=O)N[C@@H](CCC(=O)O)C(=O)N[C@@H](CC(=O)O)C(N)=O)[C@@H](C)O [ETEKIAWGPTGDED] (Ac-ETEKIAWGPTGDED-NH2)	> 6250 nM

Same assay, conditions: Table 11, deep mutational scanning validation variants of AJAP-1WT; read-out: Ki (nM) mean ± SEM

Structure (SMILES)	Ki
CC[C@H](C)[C@H](NC(=O)[C@H](Cc1ccccc1)NC(=O)[C@H](CCC(=O)O)NC(=O)[C@@H](NC(=O)[C@H](CCC(=O)O)NC(C)=O)[C@@H](C)O)C(=O)N[C@@H](C)C(=O)N[C@@H](Cc1c[nH]c2ccccc12)C(=O)NCC(=O)N1CCC[C@H]1C(=O)N[C@H](C(=O)N[C@@H](Cc1c[nH]cn1)C(=O)N[C@@H](CC(=O)O)C(=O)N[C@@H](CCC(=O)O)C(=O)N[C@@H](CC(=O)O)C(N)=O)[C@@H](C)O [ETEFIAWGPTHDED] (Ac-ETEFIAWGPTHDED-NH2)	30 ± 1 nM
CC[C@H](C)[C@H](NC(=O)[C@H](Cc1ccccc1)NC(=O)[C@H](CCC(=O)O)NC(=O)[C@@H](NC(=O)[C@H](CCC(=O)O)NC(C)=O)[C@@H](C)O)C(=O)N[C@@H](C)C(=O)N[C@@H](Cc1c[nH]c2ccccc12)C(=O)NCC(=O)N1CCC[C@H]1C(=O)N[C@H](C(=O)N[C@@H](CCCNC(=N)N)C(=O)N[C@@H](CC(=O)O)C(=O)N[C@@H](CCC(=O)O)C(=O)N[C@@H](CC(=O)O)C(N)=O)[C@@H](C)O [ETEFIAWGPTRDED] (Ac-ETEFIAWGPTRDED-NH2)	32 ± 1 nM
CC[C@H](C)[C@H](NC(=O)[C@H](Cc1ccccc1)NC(=O)[C@H](CCC(=O)O)NC(=O)[C@@H](NC(=O)[C@H](CCC(=O)O)NC(C)=O)[C@@H](C)O)C(=O)N[C@@H](C)C(=O)N[C@@H](Cc1c[nH]c2ccccc12)C(=O)N[C@@H](Cc1c[nH]cn1)C(=O)N1CCC[C@H]1C(=O)N[C@H](C(=O)NCC(=O)N[C@@H](CC(=O)O)C(=O)N[C@@H](CCC(=O)O)C(=O)N[C@@H](CC(=O)O)C(N)=O)[C@@H](C)O [ETEFIAWHPTGDED] (Ac-ETEFIAWHPTGDED-NH2)	240 ± 7 nM
CC[C@H](C)[C@H](NC(=O)[C@H](Cc1ccccc1)NC(=O)[C@H](CCC(=O)O)NC(=O)[C@@H](NC(=O)[C@H](CCC(=O)O)NC(C)=O)[C@@H](C)O)C(=O)N[C@@H](C)C(=O)N[C@@H](Cc1c[nH]c2ccccc12)C(=O)N[C@@H](Cc1ccc(O)cc1)C(=O)N1CCC[C@H]1C(=O)N[C@H](C(=O)NCC(=O)N[C@@H](CC(=O)O)C(=O)N[C@@H](CCC(=O)O)C(=O)N[C@@H](CC(=O)O)C(N)=O)[C@@H](C)O [ETEFIAWYPTGDED] (Ac-ETEFIAWYPTGDED-NH2)	199 ± 10 nM
CC[C@H](C)[C@H](NC(=O)[C@H](Cc1ccccc1)NC(=O)[C@H](CCC(=O)O)NC(=O)[C@@H](NC(=O)[C@H](CCC(=O)O)NC(C)=O)[C@@H](C)O)C(=O)N[C@@H](Cc1c[nH]cn1)C(=O)N[C@@H](Cc1c[nH]c2ccccc12)C(=O)NCC(=O)N1CCC[C@H]1C(=O)N[C@H](C(=O)NCC(=O)N[C@@H](CC(=O)O)C(=O)N[C@@H](CCC(=O)O)C(=O)N[C@@H](CC(=O)O)C(N)=O)[C@@H](C)O [ETEFIHWGPTGDED] (Ac-ETEFIHWGPTGDED-NH2)	24 ± 1 nM
CC[C@H](C)[C@H](NC(=O)[C@H](Cc1ccccc1)NC(=O)[C@H](CCC(=O)O)NC(=O)[C@@H](NC(=O)[C@H](CCC(=O)O)NC(C)=O)[C@@H](C)O)C(=O)N[C@H](C(=O)N[C@@H](Cc1c[nH]c2ccccc12)C(=O)NCC(=O)N1CCC[C@H]1C(=O)N[C@H](C(=O)NCC(=O)N[C@@H](CC(=O)O)C(=O)N[C@@H](CCC(=O)O)C(=O)N[C@@H](CC(=O)O)C(N)=O)[C@@H](C)O)C(C)C [ETEFIVWGPTGDED] (Ac-ETEFIVWGPTGDED-NH2)	30 ± 1 nM
CC[C@H](C)[C@H](NC(=O)[C@H](Cc1c[nH]c2ccccc12)NC(=O)[C@H](CCC(=O)O)NC(=O)[C@@H](NC(=O)[C@H](CCC(=O)O)NC(C)=O)[C@@H](C)O)C(=O)N[C@@H](C)C(=O)N[C@@H](Cc1c[nH]c2ccccc12)C(=O)NCC(=O)N1CCC[C@H]1C(=O)N[C@H](C(=O)NCC(=O)N[C@@H](CC(=O)O)C(=O)N[C@@H](CCC(=O)O)C(=O)N[C@@H](CC(=O)O)C(N)=O)[C@@H](C)O [ETEWIAWGPTGDED] (Ac-ETEWIAWGPTGDED-NH2)	35 ± 2 nM
CC[C@H](C)[C@H](NC(=O)[C@H](Cc1ccc(O)cc1)NC(=O)[C@H](CCC(=O)O)NC(=O)[C@@H](NC(=O)[C@H](CCC(=O)O)NC(C)=O)[C@@H](C)O)C(=O)N[C@@H](C)C(=O)N[C@@H](Cc1c[nH]c2ccccc12)C(=O)NCC(=O)N1CCC[C@H]1C(=O)N[C@H](C(=O)NCC(=O)N[C@@H](CC(=O)O)C(=O)N[C@@H](CCC(=O)O)C(=O)N[C@@H](CC(=O)O)C(N)=O)[C@@H](C)O [ETEYIAWGPTGDED, Ac-ETEYIAWGPTGDED-NH2] (Ac-ETEYIAWGPTGDED-NH2)	18 ± 1 nM
CC[C@H](C)[C@H](NC(=O)[C@H](Cc1ccccc1)NC(=O)[C@H](Cc1c[nH]cn1)NC(=O)[C@@H](NC(=O)[C@H](CCC(=O)O)NC(C)=O)[C@@H](C)O)C(=O)N[C@@H](C)C(=O)N[C@@H](Cc1c[nH]c2ccccc12)C(=O)NCC(=O)N1CCC[C@H]1C(=O)N[C@H](C(=O)NCC(=O)N[C@@H](CC(=O)O)C(=O)N[C@@H](CCC(=O)O)C(=O)N[C@@H](CC(=O)O)C(N)=O)[C@@H](C)O [ETHFIAWGPTGDED]	58 ± 4 nM
CC[C@H](C)[C@H](NC(=O)[C@H](Cc1ccccc1)NC(=O)[C@H](CO)NC(=O)[C@@H](NC(=O)[C@H](CCC(=O)O)NC(C)=O)[C@@H](C)O)C(=O)N[C@@H](C)C(=O)N[C@@H](Cc1c[nH]c2ccccc12)C(=O)NCC(=O)N1CCC[C@H]1C(=O)N[C@H](C(=O)NCC(=O)N[C@@H](CC(=O)O)C(=O)N[C@@H](CCC(=O)O)C(=O)N[C@@H](CC(=O)O)C(N)=O)[C@@H](C)O [ETSFIAWGPTGDED] (Ac-ETSFIAWGPTGDED-NH2)	34 ± 1 nM
CC[C@H](C)[C@H](NC(=O)[C@H](Cc1ccccc1)NC(=O)[C@H](CCC(=O)O)NC(=O)[C@@H](NC(=O)[C@H](CCC(=O)O)NC(C)=O)C(C)C)C(=O)N[C@@H](C)C(=O)N[C@@H](Cc1c[nH]c2ccccc12)C(=O)NCC(=O)N1CCC[C@H]1C(=O)N[C@H](C(=O)NCC(=O)N[C@@H](CC(=O)O)C(=O)N[C@@H](CCC(=O)O)C(=O)N[C@@H](CC(=O)O)C(N)=O)[C@@H](C)O [EVEFIAWGPTGDED] (Ac-EVEFIAWGPTGDED-NH2)	28 ± 1 nM
CC[C@H](C)[C@H](NC(=O)[C@H](Cc1ccccc1)NC(=O)[C@H](CCC(=O)O)NC(=O)[C@@H](NC(=O)[C@H](CC(N)=O)NC(C)=O)[C@@H](C)O)C(=O)N[C@@H](C)C(=O)N[C@@H](Cc1c[nH]c2ccccc12)C(=O)NCC(=O)N1CCC[C@H]1C(=O)N[C@H](C(=O)NCC(=O)N[C@@H](CC(=O)O)C(=O)N[C@@H](CCC(=O)O)C(=O)N[C@@H](CC(=O)O)C(N)=O)[C@@H](C)O [NTEFIAWGPTGDED] (Ac-NTEFIAWGPTGDED-NH2)	62 ± 3 nM

Same assay, conditions: Table 13, peptides for affinity maturation; read-out: Ki (nM) mean ± SEM

Structure (SMILES)	Ki
CC[C@H](C)[C@H](NC(=O)[C@H](Cc1ccccc1)NC(=O)[C@H](CCC(=O)O)NC(=O)[C@@H](NC(=O)[C@H](CCC(=O)O)NC(C)=O)[C@@H](C)O)C(=O)N[C@@H](C)C(=O)N[C@@H](Cc1c[nH]c2ccccc12)C(=O)NCC(=O)N1CCC[C@H]1C(=O)N[C@H](C(=O)N[C@H](C(=O)N[C@@H](CO)C(=O)N[C@@H](CCCNC(=N)N)C(=O)N[C@@H](CCC(=O)O)C(=O)N[C@@H](CC(=O)O)C(N)=O)C(C)C)[C@@H](C)O [ETEFIAWGPTVSRED] (Ac-ETEFIAWGPTVSRED-NH2)	148 ± 6 nM
CC[C@H](C)[C@H](NC(=O)[C@H](Cc1ccccc1)NC(=O)[C@H](CCC(=O)O)NC(=O)[C@@H](NC(=O)[C@H](CCC(=O)O)NC(C)=O)[C@@H](C)O)C(=O)N[C@@H](C)C(=O)N[C@@H](Cc1c[nH]c2ccccc12)C(=O)N[C@@H](Cc1ccc(O)cc1)C(=O)NCC(=O)N1CCC[C@H]1C(=O)N[C@H](C(=O)NCC(=O)N[C@@H](CC(=O)O)C(=O)N[C@@H](CCC(=O)O)C(=O)N[C@@H](CC(=O)O)C(N)=O)[C@@H](C)O [ETEFIAWYGPTGDED] (Ac-ETEFIAWYGPTGDED-NH2)	195 ± 7 nM
CC[C@H](C)[C@H](NC(=O)[C@H](Cc1ccccc1)NC(=O)[C@H](CCC(=O)O)NC(=O)[C@@H](NC(=O)[C@H](CCC(=O)O)NC(C)=O)[C@@H](C)O)C(=O)N[C@@H](C)C(=O)N[C@@H](Cc1c[nH]c2ccccc12)C(=O)N[C@@H](Cc1ccc(O)cc1)C(=O)N1CCC[C@H]1C(=O)N[C@H](C(=O)NCC(=O)N[C@@H](CC(=O)O)C(=O)N[C@@H](CCC(=O)O)C(=O)N[C@@H](CC(=O)O)C(N)=O)[C@@H](C)O [ETEFIAWYPTGDED] (Ac-ETEFIAWYPTGDED-NH2)	199 ± 10 nM
